Assay results taken from US10179770B2, “Quinolines derivatives as novel anticancer agents” (GENOSCIENCE PHARMA, priority 2013, dated 2019).

Experiments:
[1] = tested on: patient derived acute myeloid leukemia (AML) cell lines; experiment: Cell growth inhibition assay, patient derived AML cells; type: cell-based, human; conditions: 48 h
Procedure: The patient derived acute myeloid leukemia (AML) cells were obtained after written informed consent under the Institut Paoli Calmette (IPC) institutional review board approval and under the strict compliance of the Helsinki declaration on medical research involving human subjects. […] Each compound was added at different concentrations (combinations of six concentrations) to each well, and cell cultures were incubated for 48 h. Vehicle (H2O) was used as a control, and all compounds were tested in a constant percentage of vehicle. Cell outgrowth was measured using the CellTiter-Glo luminescent cell viability assay as described by the manufacturer (Promega, Ref G7571 Madison, Wis., USA) using a Centro (Berthold, France) plate reader. In each experiment, each point represents the average of triplicates in cell culture. The experimental data are analyzed using a computer program, Graphpad Prism (GraphPad Software, Inc.

[2] = tested on: PBMC Healthy voluntary donor; experiment: Cell growth inhibition assay, PBMC of healthy donors; type: cell-based, human; conditions: PBMC Healthy voluntary donor 1
Procedure: Each compound was added at different concentrations (combinations of six concentrations) to each well, and cell cultures were incubated for 48 h. Vehicle (H2O) was used as a control, and all compounds were tested in a constant percentage of vehicle. Cell outgrowth was measured using the CellTiter-Glo luminescent cell viability assay as described by the manufacturer (Promega, Ref G7571 Madison, Wis., USA) using a Centro (Berthold, France) plate reader. In each experiment, each point represents the average of triplicates in cell culture. The experimental data are analyzed using a computer program, Graphpad Prism (GraphPad Software, Inc.

Nc1ccn([C@@H]2O[C@H](CO)[C@@H](O)[C@@H]2O)c(=O)n1 [AraC, cytosine arabinoside, reference compound]
EC50 ([1]; Patient 3, subtype Tri8): 44 µM | EC50 ([1]; Patient 8, subtype FLT3−): 51 µM | EC50 ([1]; Patient 9, subtype FLT3+): 21 µM | EC50 ([1]; Patient 10, subtype Inv 3): 36 µM | EC50 ([1]; Patient 12, subtype 5 & 7): > 40 µM | EC50 ([1]; Patient 13, subtype MLL): 3 µM | EC50 ([1]; Patient 16, subtype Inv 3): 11 µM | EC50 [2]: 13 µM
